A word on the IC50: it is the point on the concentration scale where inhibition reaches its midpoint. Higher therefore signals weaker potency in that assay. One may read the EC50 as the concentration that produces a half-maximal response. The half-life is how long it takes for the measured level to halve. A high value points to slow loss. The bioavailability is the share of a dose that reaches the circulation, judged against a reference dose that is usually intravenous. As a reminder, the Kp is the ratio of the level in a tissue or fluid to that in plasma or blood. As a reminder, the CL/F is the apparent clearance, not corrected for the fraction that reaches the circulation. One may read the Cmax as the highest concentration seen after dosing.

31 compounds from ChEMBL document CHEMBL1138030, “Inhibitors of HCV NS5B polymerase: synthesis and structure-activity relationships of N-1-benzyl and N-1-[3-methylbutyl]-4-hydroxy-1,8-naphthyridon-3-yl benzothiadiazine analogs containing substituents on the aromatic ring” (Bioorg Med Chem Lett, 2006) can be followed below.

Series [1] addresses T1, RNA-directed RNA polymerase (Hepacivirus hominis, UniProt O39930). As to the kind of experiment: Inhibition of HCV 1a NS5B RNA polymerase. The arrangement: species or system Hepatitis C virus subtype 1a.
In series [2] the target is T1, RNA-directed RNA polymerase. Description: Inhibition of HCV 1b NS5B RNA polymerase. The arrangement: species or system Hepatitis C virus subtype 1b.
Series [3] can be described thus: Protein binding in plasma. The format is ADME, cell-free. To be noted: read-out: PPB.
Series [4] has as its system Hepatitis C virus. Description: Inhibition of HCV 1b replication in presence of 40% human serum. In kind it is functional, organism-based, Hepatitis C virus subtype 1b.
For series [5], the system named is Hepatitis C virus. As to the kind of experiment: Inhibition of HCV 1b replication in presence of 5% fetal calf serum. The format is functional, organism-based, Hepatitis C virus subtype 1b.
Series [6] in a line: Half life in rat at 5 mg/kg, po. In kind it is ADME, organism-based. Also on record: dose 5 mg/kg, route oral. To be noted: in vivo.
The nature of series [7]: Bioavailability in rat at 5 mg/kg, po. In kind it is ADME, organism-based. As to conditions: in vivo.
Series [8] is described as follows: Ratio of drug level in liver to plasma in rat after 8 hrs. In kind it is ADME, organism-based.
Series [9] can be described thus: Clearance in rat at 5 mg/kg, po. The format is ADME, organism-based. The arrangement: dose 5 mg/kg, route oral. As to conditions: in vivo.
Series [10] can be described thus: Cmax in rat at 5 mg/kg, po. In kind it is ADME, organism-based. The arrangement: dose 5 mg/kg, route oral. To be noted: in vivo.

T1 sequence (O39930 whole entry): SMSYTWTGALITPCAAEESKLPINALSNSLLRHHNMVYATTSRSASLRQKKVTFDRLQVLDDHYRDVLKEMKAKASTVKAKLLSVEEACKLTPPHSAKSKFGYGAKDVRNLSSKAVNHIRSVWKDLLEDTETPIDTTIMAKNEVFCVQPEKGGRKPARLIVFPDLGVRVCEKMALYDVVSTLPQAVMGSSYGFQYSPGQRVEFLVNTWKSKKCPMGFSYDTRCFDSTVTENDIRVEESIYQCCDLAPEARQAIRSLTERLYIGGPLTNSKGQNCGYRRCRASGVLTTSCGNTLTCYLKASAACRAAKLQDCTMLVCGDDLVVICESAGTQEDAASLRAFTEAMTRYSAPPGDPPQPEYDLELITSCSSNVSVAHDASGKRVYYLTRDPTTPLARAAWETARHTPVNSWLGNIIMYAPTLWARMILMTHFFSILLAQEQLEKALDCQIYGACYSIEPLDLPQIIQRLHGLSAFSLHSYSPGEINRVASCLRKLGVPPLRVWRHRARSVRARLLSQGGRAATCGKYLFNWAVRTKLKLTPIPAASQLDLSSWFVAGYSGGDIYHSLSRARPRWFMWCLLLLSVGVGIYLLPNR

In series [1], `O=c1c(C2=NS(=O)(=O)c3ccccc3N2)c(O)c2cccnc2n1Cc1ccccc1` gave an IC50 of 5800 nM.

In the case of `CC(C)CCn1c(=O)c(C2=NS(=O)(=O)c3ccccc3N2)c(O)c2cccnc21`, the IC50 in series [2] is 41 nM; in [1] it was 810 nM.

Consider `CC(C)CCn1c(=O)c(C2=NS(=O)(=O)c3cc(OCC(=O)N(C)C)ccc3N2)c(O)c2cccnc21`, for which the IC50 was 70 nM in series [2] and 934 nM in series [1].

On to `CC(C)CCn1c(=O)c(C2=Nc3ccc(NCC#N)cc3S(=O)(=O)N2)c(O)c2cccnc21`, for which the results for the concentration for half-maximal inhibition (IC50) in series [2] and in series [1] were 24 nM and 120 nM, respectively.

Consider `CC(C)CCn1c(=O)c(C2=Nc3ccc(OCc4ccccc4)cc3S(=O)(=O)N2)c(O)c2cccnc21`, for which the IC50 in series [2] amounted to 1490 nM.

`CC(C)CCn1c(=O)c(C2=NS(=O)(=O)c3cc(NS(C)(=O)=O)ccc3N2)c(O)c2cccnc21`: in series [3], the fraction unbound is below 0.01. Further, the EC50 in series [4] is 1310 nM; in series [5], 3 nM. Also, in series [1], the IC50 amounted to 2 nM.

In the case of `CC(C)CCn1c(=O)c(C2=NS(=O)(=O)c3cc(NS(=O)(=O)C(C)C)ccc3N2)c(O)c2cccnc21`, the figures for the IC50 in [2] and in series [1] were 3 nM and 8 nM, respectively. Besides, the EC50 in [5] amounted to 110 nM.

As for `CC(C)CCn1c(=O)c(C2=Nc3ccc(NS(=O)(=O)c4ccccc4)cc3S(=O)(=O)N2)c(O)c2cccnc21`, the IC50 in series [2] amounted to 7 nM; in series [1], 41 nM. Moreover, the EC50 in [5] amounted to 1690 nM.

For `COc1ccc2c(c1)S(=O)(=O)NC(c1c(O)c3cccnc3n(Cc3ccccc3)c1=O)=N2`, the values for the IC50 in series [2] and in series [1] were 76 nM and 8310 nM, respectively.

Consider `O=c1c(C2=NS(=O)(=O)c3cccc(O)c3N2)c(O)c2cccnc2n1Cc1ccccc1`, for which the IC50 in series [2] was 54 nM; in [1], 8370 nM.

Take `O=c1c(C2=NS(=O)(=O)c3ccc(O)cc3N2)c(O)c2cccnc2n1Cc1ccccc1`: the IC50 in series [2] was 2510 nM.

For the compound `CC(C)CCn1c(=O)c(C2=Nc3ccc(OCC(N)=O)cc3S(=O)(=O)N2)c(O)c2cccnc21`, the fraction unbound in series [3] is below 0.01. The half-life in series [6] was 2 h. Besides, in series [7], the bioavailability turned out to be 35%. In addition, the IC50 is 16 nM in series [2] and 46 nM in series [1]. The EC50 was 2740 nM in series [4] and 78 nM in series [5]. In addition, the Kp at 8 h in series [8] turned out to be 54. Besides, the CL/F in series [9] was 12.3 mL/min/kg. In series [10], the Cmax came out at 180 nM.

Consider `Cc1ccc2c(c1)S(=O)(=O)NC(c1c(O)c3cccnc3n(Cc3ccccc3)c1=O)=N2`, for which the IC50 in series [2] came out at 230 nM; in [1] it was 25700 nM.

In the case of `CCCCS(=O)(=O)Nc1ccc2c(c1)S(=O)(=O)NC(c1c(O)c3cccnc3n(CCC(C)C)c1=O)=N2`, the IC50 in series [2] was 5 nM; in series [1], 22 nM. Moreover, the half-maximal effective concentration (EC50) in series [5] came out at 1000 nM.

Turning to `CC(C)CCn1c(=O)c(C2=NS(=O)(=O)c3cc(OCC(=O)O)ccc3N2)c(O)c2cccnc21`, the results for the IC50 in series [2] and in series [1] were 57 nM and 367 nM, respectively.

With `O=c1c(C2=NS(=O)(=O)c3cccc(Br)c3N2)c(O)c2cccnc2n1Cc1ccccc1`, the IC50 came to 1170 nM in [2] and 6200 nM in series [1].

In turn, `COc1ccc2c(c1)N=C(c1c(O)c3cccnc3n(Cc3ccccc3)c1=O)NS2(=O)=O` had an IC50 in series [2] of 3900 nM.

With `CC(C)CCn1c(=O)c(C2=Nc3ccc(N)cc3S(=O)(=O)N2)c(O)c2cccnc21`, the results for the IC50 in series [2] and in series [1] were 23 nM and 310 nM, respectively. The EC50 in [5] was 480 nM.

In the case of `CCCOc1ccc2c(c1)S(=O)(=O)NC(c1c(O)c3cccnc3n(CCC(C)C)c1=O)=N2`, the IC50 in series [2] was 930 nM; in [1], 1620 nM.

For the compound `CC(C)CCn1c(=O)c(C2=Nc3ccc(OCC(=O)OC(C)(C)C)cc3S(=O)(=O)N2)c(O)c2cccnc21`, the results for the IC50 in series [2] and in series [1] were 850 nM and 5000 nM, respectively.

Take `COc1cccc2c1NC(c1c(O)c3cccnc3n(Cc3ccccc3)c1=O)=NS2(=O)=O`: the IC50 was found to be 2120 nM in [2] and 18000 nM in [1].

Take `COc1cccc2c1N=C(c1c(O)c3cccnc3n(CCC(C)C)c1=O)NS2(=O)=O`: the IC50 in [2] turned out to be 1170 nM; in [1], 17600 nM.

Turning to `COc1ccc2c(c1)S(=O)(=O)N=C(c1c(O)c3cccnc3n(CCC(C)C)c1=O)N2`, the IC50 in series [2] stood at 65 nM; in [1] it was 1130 nM.

For `O=c1c(C2=Nc3ccc(Br)cc3S(=O)(=O)N2)c(O)c2cccnc2n1Cc1ccccc1`, the IC50 in series [2] was determined as 756 nM; in series [1], 16800 nM.

As for `CC(C)CCn1c(=O)c(C2=NS(=O)(=O)c3cc(NC(=O)C(F)(F)F)ccc3N2)c(O)c2cccnc21`, the IC50 in [2] was 70 nM; in series [1], 906 nM.

Turning to `CC(C)CCn1c(=O)c(C2=NS(=O)(=O)c3cc(O)ccc3N2)c(O)c2cccnc21`, the IC50 came out at 42 nM in series [2] and 390 nM in series [1].

`CC(C)CCn1c(=O)c(C2=NS(=O)(=O)c3cc(OCC#N)ccc3N2)c(O)c2cccnc21`: the IC50 in series [2] was 25 nM; in [1], 141 nM.

As to `Cc1cccc2c1N=C(c1c(O)c3cccnc3n(Cc3ccccc3)c1=O)NS2(=O)=O`, the IC50 in series [2] came to 96 nM; in [1] it was 6700 nM.

Turning to `CC(C)CCn1c(=O)c(C2=Nc3ccc(NCC(N)=O)cc3S(=O)(=O)N2)c(O)c2cccnc21`, the IC50 worked out at 34 nM in series [2] and 470 nM in series [1]. Further, the EC50 in [5] amounted to 450 nM.

In the case of `CNC(=O)COc1ccc2c(c1)S(=O)(=O)NC(c1c(O)c3cccnc3n(CCC(C)C)c1=O)=N2`, the IC50 in [2] was 80 nM; in series [1] it was 180 nM.

As to `CC(C)CCn1c(=O)c(C2=Nc3ccc(OCCN)cc3S(=O)(=O)N2)c(O)c2cccnc21`, the results for the IC50 in series [2] and in series [1] were 51 nM and 637 nM, respectively.
